Experimental data taken from patent US20170088878A1, “METHOD FOR THE GENERATION OF CHEMICAL LIBRARIES” (ETH ZURICH, priority 2014, published 2017).

Target: T1, HCV protease (Hepatitis C virus genotype 1a, UniProt P27958)
T1 construct: purchased ProteinOne
Assay: biochemical
Experimental: The HCV protease assay kits were purchased from ProteinOne and experiments were performed according to the manual provided.
Assay solution (100 μL) was added to each well by a multichannel pipette (Eppendorf Research) and the fluorescence signals were recorded immediately.
Fluorescence signals were recorded at 90 min. The experiment was repeated in triplicate. IC50 was calculated via nonlinear regression using the software package GraphPad Prism 5.

T1 sequence (P27958 1027-1208, other chains not shown): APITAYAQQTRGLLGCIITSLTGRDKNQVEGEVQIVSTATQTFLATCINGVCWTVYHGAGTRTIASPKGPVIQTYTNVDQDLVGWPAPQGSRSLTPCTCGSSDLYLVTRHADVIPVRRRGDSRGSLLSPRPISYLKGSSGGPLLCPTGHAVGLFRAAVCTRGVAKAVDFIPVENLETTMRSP

CC(C)(C)OC(=O)CC[C@@H](CC(=O)C(=O)NCc1ccc(Cl)cc1)NC(=O)C[C@@H](NC(=O)C[C@@H](NC(=O)C[C@@H](NC(=O)CCC(=O)O)C1CCCCC1)C1CCCCC1)C1CCCCC1 [I^3-M^5-M^5-M^5-T^4]
IC50: 1000 nM
